Among the data in ChEMBL document CHEMBL1145063, “Structure-based design of a macrocyclic inhibitor for peptide deformylase” (J Med Chem, 2003) are MIC, Ki and IC50 values, retold here.

Values after ≈ are worked out from the molar mass of the structure shown.

One assay has as its system Escherichia coli. Kind of assay: In vitro minimal inhibitory concentration against Escherichia coli was determined. Format: functional.
The subject of a further assay is Bacillus subtilis. Kind of assay: In vitro minimal inhibitory concentration against Bacillus subtilis was determined. In kind it is functional.
Assay [1] concerns the target T1, Peptide deformylase (Escherichia coli, UniProt Q9JN24).
T1 sequence (Q9JN24 whole entry): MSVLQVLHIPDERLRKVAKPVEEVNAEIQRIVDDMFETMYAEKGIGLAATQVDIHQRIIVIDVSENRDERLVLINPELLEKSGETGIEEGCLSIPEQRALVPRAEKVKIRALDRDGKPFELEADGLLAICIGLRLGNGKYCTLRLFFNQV
Description: Binding affinity against Co(II)-substituted Escherichia coli peptide deformylase was determined.

Assay [2] deals with T1, Peptide deformylase. Description: Inhibitory concentration against peptide deformylase was determined.

As for `CC(C)(C)[C@@H]1NC(=O)C(CN(O)C=O)CCCCCCCCCNC1=O` (some centres undefined), the MIC – broadly, the least concentration at which growth counts as inhibited – in the assay with Escherichia coli worked out at 32 µM (≈ 11.8 µg/mL); against Bacillus subtilis, 4 µM (≈ 1.48 µg/mL). Also, the Ki (in general, the equilibrium dissociation constant of an inhibitor or competing ligand from its target) at Peptide deformylase [1] came out at 0.67 nM.
Take `CCCCC(CN(O)C=O)C(=O)N[C@H](C(=O)N(C)C)C(C)(C)C` (some centres undefined): the half-inhibitory concentration (IC50) (usually the concentration that inhibits the measured activity by half) against Peptide deformylase [2] turned out to be 7 nM.
